The values that follow come from US7063946B2, “Methods, reagents, kits and apparatus for protein function analysis” (Meso Scale Technologies, LLC., priority 2001, dated 2006).

pIC50: −log10 of the molar value.

Experiment [1] concerns tyrosine kinases reported to be the target of each inhibitor. As to conditions: read-out: reported IC50 concentration (1× concentration); for the kinase reported to be the target of the inhibitor; cited from earlier work.
For a further experiment, the system named is pEY. The experiment in a line: In vitro kinase library screen: activity towards pEY. The experiment is classed as biochemical. To be noted: 5 ul of expressed protein. How it is done: Proteins were produced in an in vitro transcription and translation reaction. […] The unbound components of the reaction containing endogenous kinases were removed by three washes with TT-buffer (25 mM Tris-HCl buffer pH 7.4 and 0.004% Triton), two five minutes washings with high-salt wash buffer (25 mM Tris-HCl buffer pH 7.4, 0.004% Triton, 1M NaCl and 5 mM DTT) and 3 more washes with TT-buffer. To these immobilized and purified proteins a tyrosine kinase substrate, 5 nM pEY (poly Glu-Tyr, Sigma, MO), was added in a 50 μl reaction solution containing 5 mM MgCl2, 5 mM MnCl2, 100 μM ATP, 25 mM Tris-HCl buffer pH 7.4, 0.05 mM Na3VO4, 0.004% TritonX-100, 2 mM DTT and EDTA-free protease inhibitor (Roche Molecular Biochemicals). This mixture was incubated with shaking at room temperature overnight to allow phosphorylation of the pEY substrate by the immobilized kinases. Following this incubation, 45 μl of this mixture was transferred to a streptavidin or avidin-coated NPT IPR plate coated with biotinylated anti-phosphotyrosine antibody (PY20, Zymed labs, CA) followed by incubation for 30 minutes at room temperature to allow the binding of the phosphorylated pEY substrate to the PY20 coated NPT plate. Following this binding step, 50 ng Sulfo-TAG labeled anti-phosphotyrosine in buffer containing 25 mM Tris-HCl buffer pH 7.4, 5 mM MgCl2, 0.05 mM Na3VO4, 0.004% TritonX-100, 2 mM DTT and 0.05% IgG was added followed by incubation at room temperature for 30 mm. The unbound reagents were removed by one time washing with water, and the TAG label was detected in presence of 150 μl IPR assay buffer (0.4 mM Gly-Gly buffer, pH 7.8, 1 mM EDTA, 0.1 M TPA). The ECL signals were measured using an imaging plate reader.
(§1) Proteins were produced in an in vitro transcription and translation reaction as described in the Materials and Methods. […] The reaction was stopped by mixing with BB2 buffer. Biotinylated proteins from 50 μl of the mixture (representing 0.5 μl to 5 μl of TnT reaction) were immobilized onto streptavidin or avidin coated NPT-IPR plates by shaking at room temperature for 45 min. The activity of the immobilized protein towards pEY or autophosphorylation was further assayed by the methods described in examples 7 and 8.

Experiment [2] relates to autophosphorylation (phosphotyrosine). The experiment is described as follows: In vitro kinase library screen: autophosphorylation. The experiment is classed as biochemical. How it is done:
Proteins were produced from DNA plasmids of Mock Luciferase, Promega, tyrosine kinase clone Spleen Tyrosine kinase (SYK, IMAGE ID# 3870426) and Eph receptor-A7 (EphA7, IMAGE ID# 3991628) (Incyte Genomics, CA) and immobilized on streptavidin or avidin coated NPT-IPR plates as described in the Example 7. To promote autophosphorylation in these immobilized and purified proteins, Mn++ ions were added in a 50 μl reaction containing 5 mM MgCl2, 5 mM MnCl2, 100 μM ATP, 25 mM Tris-HCl buffer pH 7.4, 0.05 mM Na3VO4, 0.004% TritonX-100, 2 mM DTT and EDTA-free protease inhibitor (Roche Molecular Biochemicals). This mixture was incubated with shaking at room temperature overnight to allow autophosphorylation. Following this incubation, wells were washed 2 times with TT-buffer and 2 times with water. Following this step, 50 ng Sulfo-TAG labeled anti-phosphotyrosine in buffer containing 25 mM Tris-HCl buffer pH 7.4, 5 mM MgCl2, 0.05 mM Na3VO4, 0.004% TritonX-100, 2 mM DTT and 0.05% IgG in a final volume of 50 μl was added followed by incubation at room temperature for 45 min. The unbound reagents were removed by one time washing with water, and the TAG label was detected in presence of 150 μl IPR assay buffer (0.4 mM Gly—Gly buffer, pH 7.8, 1 mM EDTA, 0.1 M TPA). The ECL signals were measured using an imaging plate reader.
as §1

In experiment [3] the test system is pooled phosphopeptide:BSA conjugates (Pools A-D). The experiment is described as follows: Coded multiplex phosphopeptide binding assay with pooled peptide:BSA conjugates on 4 spots. The text has this:
To prepare the Multi-Spot IPR plates, in this example we made use of pools of the peptide:BSA conjugates to coat each of 4 spots per well in a 96 well plate. To achieve this we made the following pools; • Pool A; EGFR-pTyr1148, IkBa-24ppC, Myc-p58Tp62S. • Pool B; EGFR-pTyr992, EGFR-pTyr1148, Smad3C. • Pool C; EGFR-pTyr1068, IkBa-24ppC, Smad3C. • Pool D; EGFR-pTyr992, EGFR-pTyr1068, Myc-p58Tp62S.
This combination of the various peptides results in any single peptide being present in two pools. Each of these four pools is then spotted on to a unique spot in a 4 spot array. In this way any single binding protein with specificity for only one of the peptides would bind to two spots; the identity of the two spots would allow the identification of the peptide involved in the binding reaction.
Typically approximately 120 fmole of peptide:BSA conjugate in 0.25 μl was deposited on each spot of a 4-spot multi-array IPR plates using a BioDot Dispenser (Bio-Dot Inc., vIrvine Calif.). At this stage, the plates were dried then used or stored under desiccated condition. A few hours prior to usage, the plates were rehydrated and blocked with 3% BSA, in PBS.
To test the system the following EST clones IMAGE # 3491843, 4237375, 4398016, 4419252, 3872466, 3907115 were obtained. These clones express the following genes βTRCP1, βTRCP2, Grb2, PLCγ, CBP and Shc1, respectively. […] These DNAs were used to produce proteins as described in the Materials and Methods. Proteins were transferred to a well of the 4 spot peptide-coated and BSA blocked ECL plates. The binding assay (using Sulfo-TAG labeled streptavidin as a detection agent) was carried our according to the procedures described in Example 11.

In the case of `CC(C)c1cc(/C=C(\C#N)C(=O)NCCCc2ccccc2)cc(C(C)C)c1O` [SU-1498], in experiment [1], the pIC50 was 6.15.

“4037899: IMAGE clone protein: FGFR1, fibroblast growth factor receptor 1 [compound 4037899]”: the HTS signal with pEY is on record as 450,413. The ECL signal in experiment [2] is 240,550.

As to “4419973: IMAGE clone protein: FGR, Gardner-Rasheed feline sarcoma viral (v-fgr) oncogene homolog [compound 4419973]”, the HTS signal with pEY is 104,946. For the same compound, in experiment [2], the ECL signal is recorded as 117,395.

Consider “3866791: IMAGE clone protein: JAK1, Janus kinase 1 [compound 3866791]”, for which the HTS signal in the experiment with pEY is given as 729.

Take “4398016: IMAGE clone protein: Grb2 [compound 4398016]”: in experiment [3], the “Code (pattern of positive spots)” value is reported as “C, D” and the “Peptide determined from code” value was “EGFR-pTyr1068”. Also, the “ECL signal, spot A” value in experiment [3] (Pool A, EGFR-pTyr1148, IkBa-24ppC, Myc-p58Tp62S) is listed as 36. In experiment [3] (Pool B, EGFR-pTyr992, EGFR-pTyr1148, Smad3C), the “ECL signal, spot B” value is 38. Moreover, the “ECL signal, spot C” value in experiment [3] (Pool C, EGFR-pTyr1068, IkBa-24ppC, Smad3C) was 509. Further, in experiment [3] (Pool D, EGFR-pTyr992, EGFR-pTyr1068, Myc-p58Tp62S), the “ECL signal, spot D” value worked out at 386.

With “4191610: IMAGE clone protein: LCK, lymphocyte protein tyrosine kinase [compound 4191610]”, the HTS signal in the experiment on pEY was 3,110. For the same compound, the ECL signal in experiment [2] is recorded as 24,183.

With “4343428: IMAGE clone protein: PTK2B, protein tyrosine kinase 2 beta [compound 4343428]”, in the experiment on pEY, the HTS signal was 57,486. In experiment [2], the ECL signal was 274,742.

Consider “3921724: IMAGE clone protein: FGR, FYN oncogene related to SRC [compound 3921724]”, for which, in the experiment with pEY, the HTS signal is listed as 93,081. Also, the ECL signal in experiment [2] is 241,697.

Take “4419031: IMAGE clone protein: BLK, B lymphoid tyrosine kinase [compound 4419031]”: in the experiment with pEY, the HTS signal was 37,907. The ECL signal in experiment [2] is on record as 146,775.

Turning to “3982920: IMAGE clone protein: Clk4, CDC like kinase 4 [compound 3982920]”, the HTS signal with pEY was 2,244. The ECL signal in experiment [2] is 192,787.

For the compound “4181574: IMAGE clone protein: NTRK3, neurotrophic tyrosine kinase [compound 4181574]”, the HTS signal in the experiment on pEY is 36,515. For the same compound, the ECL signal in experiment [2] is 55,017.

With “3601246: IMAGE clone protein: FRK, B-cell src-homology tyrosine kinase [compound 3601246]”, the HTS signal in the experiment on pEY was 15,235. Also, in experiment [2], the ECL signal is listed as 28,243.

With “3156953: IMAGE clone protein: Wee1, wee 1 homolog (S. pombe) [compound 3156953]”, the HTS signal in the experiment on pEY is given as 981. Moreover, the ECL signal in experiment [2] is recorded as 27,452.

Consider “4363897: IMAGE clone protein: FGR, FYN oncogene related to SRC [compound 4363897]”, for which, in the experiment on pEY, the HTS signal is 402,243. Besides, the ECL signal in experiment [2] is recorded as 44,220.

For “4387232: IMAGE clone protein: CLK1, CDC-like kinase 1 [compound 4387232]”, the HTS signal in the experiment with pEY was 5,109. For the same compound, the ECL signal in experiment [2] is on record as 423,938.

Turning to “4515877: IMAGE clone protein: Frk, fyn-related kinase [compound 4515877]”, in the experiment with pEY, the HTS signal is given as 271,855. Also, in experiment [2], the ECL signal is 148,139.

Consider “3896359: IMAGE clone protein: FGFR1, fibroblast growth factor receptor 1 (fms-related TK2) [compound 3896359]”, for which, in the experiment with pEY, the HTS signal was 2,339. Moreover, the ECL signal in experiment [2] is recorded as 7,696.

“4471986: IMAGE clone protein: ALK, anaplastic lymphoma kinase (Ki-1) [compound 4471986]” displayed an HTS signal in the experiment with pEY of 905. Moreover, the ECL signal in experiment [2] is listed as 4,069.

As to `CCOc1cc2ncnc(Nc3cccc(Br)c3)c2cc1OCC` [Compound-56], the pIC50 in experiment [1] is 11.22.

Regarding “4036253: IMAGE clone protein: CLK3, CDC-like kinase 3 [compound 4036253]”, the HTS signal in the experiment with pEY is given as 704. For the same compound, in experiment [2], the ECL signal is 42,712.

For `COc1cc2ncnc(Nc3cccc(Cl)c3)c2cc1OC` [AG-1478], in experiment [1], the pIC50 is 8.52.

As to “3989782: IMAGE clone protein: Yes, Yamaguchi sarcoma viral (v-yes) oncogene homolog [compound 3989782]”, the HTS signal in the experiment on pEY is reported as 2,208. Further, in experiment [2], the ECL signal is on record as 4,542.

The compound “3995512: IMAGE clone protein: CLK2, CDC-like kinase 2 [compound 3995512]” yielded an HTS signal with pEY of 634. Besides, in experiment [2], the ECL signal is on record as 20,748.

On to “4419700: IMAGE clone protein: LCK, lymphocyte-specific protein tyrosine kinase [compound 4419700]”, for which the HTS signal in the experiment with pEY is 898. Further, in experiment [2], the ECL signal is 7,230.
